# From patent publication US20250248924A1, “COMPOUNDS FROM FRUIT SEED EXTRACTS FOR MELANIN REDUCTION IN SKIN” (priority 2024, published 2025)
# Columns and labels:
# [1] = Solubility in the enzyme assay; type: physicochemical; details: aqueous pH 7.00 phosphate buffer with DMSO stock
# Solubility in solvents = type: physicochemical
# Source text: A 2.5 gram sample of a red raspberry seed extract in a dry powder form was split into two fractions, one combined 1.25 grams of the dry extract with 11.25 grams of water to create a 10% aqueous solution of the extract. […] Combining 1.25 grams of the dry extract with about 11.25 grams of isopropyl alcohol (91%) produced an about 10% alcohol solution.
# Using pure water was explored in extraction experiments with cranberry seed powder. The advantages of using water are essentially zero cost and toxicity. It is also a very polar solvent and will not extract any residual oils (which are very non-polar compounds) from the seed powders. The limitations of using water are that it gives quite low yields in extractions at room temperature and only dissolved the most polar compounds from the seed powders, leaving most of the medium polarity materials behind. It is possible that this could be improved by heating. […] Simply filtering the mixture through inexpensive filter paper by gravity or mild vacuum will be unsuccessful. One solution that worked was mixing in filtering media (diatomaceous earth) and then vacuum filtering through a bed of the same filtering medium. To completely clarify the mixture, an additional treatment with activated carbon and further vacuum filtering through a bed of diatomaceous earth was effective. Given the limitations of water extraction, it was not used extensively. […]
smiles,measurement,setting,value
O=c1oc2c(O)c(O)cc3c(=O)oc4c(O)c(O)cc1c4c23 [ellagic acid],solubility in the enzyme assay,[1],highly insoluble
same,solubility in water,Solubility in solvents; high pH,very water soluble
same,solubility in water,Solubility in solvents; neutral pH,only slightly soluble
